Entries after “also recorded” stand apart in the source; their conditions may differ.
Assays:
CYPSS204A = experiment: Conversion reaction of substrates by Escherichia coli expression strain BP215; format: cell-based, Sphingomonas subterranea NBRC 16086; details: strain BP215, 28° C., 5 hours
Protocol: The temperature conditions applied during the PCR were 95° C./5 min, 30 cycles of (98° C./30 sec, 60° C./30 sec, and 68° C./2 min), and 68° C./10 min.
Analysis conditions: Using Chromolith speed rod RP18e (50×4.6 mm) column, 50%→100% CH3CN gradient (0 to 3 min) and 100% CH3CN (3 to 8 min) were used as a mobile phase, and detection was carried out at a flow rate of 2 ml/min using CAD™ (Charged Aerosol Detection) and MS.

[1] = biological target: T1, Sphingomonas subterranea NBRC16086 P450scc CYPSS204A (CYPSS), wild type, SEQ ID NO: 2 (Novosphingobium subterraneum, UniProt A0A0B8ZS99); experiment: Kinetics analysis of CYPSS with 4-cholesten-3-one (conversion to progesterone, cell-free extract)
T1 sequence (A0A0B8ZS99 1-472): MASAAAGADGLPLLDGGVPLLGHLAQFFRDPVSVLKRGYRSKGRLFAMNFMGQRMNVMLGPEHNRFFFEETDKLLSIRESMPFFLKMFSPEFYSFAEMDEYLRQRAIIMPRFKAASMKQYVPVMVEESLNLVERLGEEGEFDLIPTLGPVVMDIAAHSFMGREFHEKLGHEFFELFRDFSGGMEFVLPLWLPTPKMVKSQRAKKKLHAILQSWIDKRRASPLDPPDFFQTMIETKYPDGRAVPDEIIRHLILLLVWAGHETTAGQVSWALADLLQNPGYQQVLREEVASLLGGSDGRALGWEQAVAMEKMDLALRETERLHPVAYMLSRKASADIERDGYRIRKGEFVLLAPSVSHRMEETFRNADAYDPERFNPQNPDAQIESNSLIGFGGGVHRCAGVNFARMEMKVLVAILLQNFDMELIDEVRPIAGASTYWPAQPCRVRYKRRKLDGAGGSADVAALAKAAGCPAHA

[2] = biological target: T2, Novosphingobium aromaticivorans ATCC 700278 P450scc CYP204A1, wild type, SEQ ID NO: 23 (Novosphingobium aromaticivorans, UniProt A4XF07); experiment: Kinetics analysis of CYP204A1 with 4-cholesten-3-one (conversion to progesterone, cell-free extract)
T2 sequence (A4XF07 1-473): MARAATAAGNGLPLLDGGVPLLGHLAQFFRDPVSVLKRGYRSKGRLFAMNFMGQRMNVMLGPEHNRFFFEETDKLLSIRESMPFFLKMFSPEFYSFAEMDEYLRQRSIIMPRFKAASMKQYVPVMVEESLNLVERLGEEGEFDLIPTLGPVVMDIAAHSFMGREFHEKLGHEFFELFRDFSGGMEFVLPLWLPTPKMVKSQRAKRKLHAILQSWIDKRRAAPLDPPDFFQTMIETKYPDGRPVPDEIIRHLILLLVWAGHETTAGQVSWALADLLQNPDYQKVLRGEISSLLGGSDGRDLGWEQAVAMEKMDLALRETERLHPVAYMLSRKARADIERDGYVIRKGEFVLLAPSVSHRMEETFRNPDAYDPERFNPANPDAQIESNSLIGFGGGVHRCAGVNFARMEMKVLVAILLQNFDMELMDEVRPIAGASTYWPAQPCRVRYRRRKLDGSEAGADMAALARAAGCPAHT

[3] = 4-cholesten-3-one 0.1 to 500 μM, pH 7.5, 15° C., 60 minutes, Lineweaver-Burk plot
[4] = substrate concentration increased from 10 μM to 100 μM, pH 7.5, 15° C.

SMILES: CC(C)CCC[C@@H](C)[C@H]1CC[C@H]2[C@@H]3CCC4=CC(=O)CC[C@]4(C)[C@H]3CC[C@]12C [4-cholesten-3-one]
- accumulated amount of side-chain cleavage product (CYPSS204A): 78.0 mg/L
- added substrate remained (CYPSS204A): not detected
- Conversion rate (CYPSS204A; to progesterone, pregnenolone or 7-dehydropregnenolone): 78%
- Vmax [1, 3]: 78.7 mmol/min/mol
- substrate inhibition ([1]; 4-cholesten-3-one, in words): hardly undergoes substrate inhibition; also recorded: substrate inhibition of CYPSS was lower than that of CYP204A1
- Vmax, times higher than that of CYP204A1 ([1]; compared with CYP204A1): approximately 1.7 times
- Vmax, relative activity ([1]; relative to CYP204A1 (1.00)): 1.66
- decrease rate of the enzyme protein activity (substrate inhibition) [1, 4]: 10%
- Vmax [2, 3]: 47.4 mmol/min/mol
- Vmax, relative activity ([2]; relative to CYP204A1 (1.00)): 1.00
- decrease rate of the enzyme protein activity (substrate inhibition) [2, 4]: 33%

From patent US20120178124A1, “STEROL SIDE CHAIN-CLEAVING ENZYME PROTEIN AND USE THEREOF” (MITSUBISHI CHEMICAL CORPORATION, priority 2009, published 2012)
